Reference: PubChem BioAssay AID248 (DTP/NCI, 2004)
Several values for one entry are separate records, joined by “and”; a condition that tells them apart may be missing. Equal entries are not always repeated. Toxic doses and inconclusive results are not listed. No stated cut-off is given here; in the data, active means T/C of 150% or more; inactive means T/C below 125%.

Test system: L1210 leukemia ip in BDF1 mice, survival T/C
Assay: NCI In Vivo Anticancer Drug Screen. Data for tumor model L1210 Leukemia (intraperitoneal) in B6D2F1 (BDF1) mice
Details: endpoint: mean survival time, higher = longer survival
Method in brief: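 In this screen, tumor-bearing mice given compound are compared to those given vehicle, and their survival values are reported as a treated-to-control quotient.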

[1] = dose: 50.0 mg/kg/injection, schedule: Q01DX001 (ip), vehicle: carboxymethylcellulose (CMC)
[2] = dose: 100.0 mg/kg/injection, schedule: Q01DX001 (ip), vehicle: saline
[3] = dose: 200.0 mg/kg/injection, schedule: Q01DX001 (ip), vehicle: saline
[4] = dose: 400.0 mg/kg/injection, schedule: Q01DX001 (ip), vehicle: saline
[5] = dose: 100.0 mg/kg/injection, schedule: Q01DX009 (ip), vehicle: saline with Tween-80
[6] = dose: 100.0 mg/kg/injection, schedule: Q04DX003 (ip), vehicle: Klucel (hydroxypropylcellulose) (HPC)
[7] = dose: 200.0 mg/kg/injection, schedule: Q01DX009 (ip), vehicle: saline with Tween-80
[8] = dose: 200.0 mg/kg/injection, schedule: Q04DX003 (ip), vehicle: Klucel (hydroxypropylcellulose) (HPC)
[9] = dose: 400.0 mg/kg/injection, schedule: Q04DX003 (ip), vehicle: Klucel (hydroxypropylcellulose) (HPC)
[10] = dose: 100.0 mg/kg/injection, schedule: Q04DX003 (ip), vehicle: saline with Tween-80
[11] = dose: 5.0 mg/kg/injection, schedule: Q01DX001 (ip), vehicle: saline
[12] = dose: 20.0 mg/kg/injection, schedule: Q01DX001 (ip), vehicle: saline
[13] = dose: 75.0 mg/kg/injection, schedule: Q01DX001 (ip), vehicle: acetone
[14] = dose: 150.0 mg/kg/injection, schedule: Q01DX001 (ip), vehicle: acetone
[15] = dose: 100.0 mg/kg/injection, schedule: Q01DX001 (ip), vehicle: carboxymethylcellulose (CMC)
[16] = dose: 100.0 mg/kg/injection, schedule: Q04DX003 (ip), vehicle: saline
[17] = dose: 200.0 mg/kg/injection, schedule: Q04DX003 (ip), vehicle: saline
[18] = dose: 400.0 mg/kg/injection, schedule: Q04DX003 (ip), vehicle: saline
[19] = dose: 100.0 mg/kg/injection, schedule: Q04DX002 (ip), vehicle: Klucel (hydroxypropylcellulose) (HPC)
[20] = dose: 200.0 mg/kg/injection, schedule: Q04DX002 (ip), vehicle: Klucel (hydroxypropylcellulose) (HPC)
[21] = dose: 400.0 mg/kg/injection, schedule: Q04DX002 (ip), vehicle: Klucel (hydroxypropylcellulose) (HPC)
[22] = dose: 100.0 mg/kg/injection, schedule: Q01DX009 (ip), vehicle: Klucel (hydroxypropylcellulose) (HPC)
[23] = dose: 200.0 mg/kg/injection, schedule: Q01DX009 (ip), vehicle: Klucel (hydroxypropylcellulose) (HPC)
[24] = dose: 400.0 mg/kg/injection, schedule: Q01DX009 (ip), vehicle: Klucel (hydroxypropylcellulose) (HPC)
[25] = dose: 75.0 mg/kg/injection, schedule: Q01DX001 (ip), vehicle: carboxymethylcellulose (CMC)

Measured: T/C

COc1cc2c(c(OC)c1OC)-c1ccc(OC)c(=O)cc1C(=O)CC2
inactive: [1] 122 % of control

CC/C(=N/NC(N)=O)c1ccccc1Cl
inactive: [2] 97 % of control | [3] 96 % of control | [4] 106 % of control

O=[N+]([O-])c1ccc(/C=N\Nc2ccc([N+](=O)[O-])cn2)cc1
inactive: dose: 50.0 mg/kg/injection, schedule: Q01DX009 (ip), vehicle: saline with Tween-80 91 % of control | dose: 100.0 mg/kg/injection, schedule: Q01DX009 (ip), vehicle: saline sonified 92 % of control | [5] 95 % of control | [6] 94 % of control | dose: 200.0 mg/kg/injection, schedule: Q01DX009 (ip), vehicle: saline sonified 87 % of control | [7] 87 % of control | [8] 93 % of control | dose: 400.0 mg/kg/injection, schedule: Q01DX009 (ip), vehicle: saline sonified 95 % of control | [9] 101 % of control

COc1ccc(-n2c(=S)[nH]c3ccc(C)cc3c2=O)cc1
inactive: [10] 92 % of control | dose: 200.0 mg/kg/injection, schedule: Q04DX003 (ip), vehicle: saline with Tween-80 87 % of control | dose: 400.0 mg/kg/injection, schedule: Q04DX003 (ip), vehicle: saline with Tween-80 90 % of control

c1ccc(COCC[P+](c2ccccc2)(c2ccccc2)c2ccccc2)cc1
inactive: [11] 94 % of control | [12] 87 % of control

CCCC(C)NNC(C)CCC (centres undefined)
inactive: [13] 96 % of control | dose: 75.0 mg/kg/injection, schedule: Q01DX001 (ip), vehicle: other 114 % of control | [14] 101 % of control

N#C/C(=C\C1CCC(OCC2CCCCC2)CC1)C1CCC([N+](=O)[O-])CC1 (centres undefined)
inactive: dose: 25.0 mg/kg/injection, schedule: Q04DX002 (ip), vehicle: saline with Tween-80 97 % of control | dose: 50.0 mg/kg/injection, schedule: Q04DX002 (ip), vehicle: saline with Tween-80 102 % of control | dose: 100.0 mg/kg/injection, schedule: Q04DX002 (ip), vehicle: saline with Tween-80 100 % of control and 91 % of control

Fc1cc(N(CCCl)CCCl)ccc1CN1CCCN(Cc2ccc(N(CCCl)CCCl)cc2F)C1c1ccc(N(CCCl)CCCl)cc1Cl
inactive: [1] 105 % of control | [15] 96 % of control | dose: 200.0 mg/kg/injection, schedule: Q01DX001 (ip), vehicle: carboxymethylcellulose (CMC) 100 % of control | dose: 400.0 mg/kg/injection, schedule: Q01DX001 (ip), vehicle: carboxymethylcellulose (CMC) 102 % of control

CCC1=NNC(=O)C1(Br)Br
inactive: [11] 105 % of control | dose: 10.0 mg/kg/injection, schedule: Q01DX001 (ip), vehicle: saline 100 % of control | [12] 100 % of control | dose: 40.0 mg/kg/injection, schedule: Q01DX001 (ip), vehicle: saline 97 % of control | dose: 80.0 mg/kg/injection, schedule: Q01DX001 (ip), vehicle: saline 103 % of control

CC1(C(=O)O)C2C=CC(C2)C1C(=O)O (centres undefined)
inactive: [16] 96 % of control | [17] 94 % of control | [18] 102 % of control

O=S(=O)(OCCCl)c1ccc(Cl)c(S(=O)(=O)OCCCl)c1
inactive: [10] 97 % of control

O=C1c2ccccc2C(=O)N1c1c[nH]c(=O)[nH]c1=O
inactive: dose: 25.0 mg/kg/injection, schedule: Q04DX003 (ip), vehicle: Klucel (hydroxypropylcellulose) (HPC) 95 % of control | dose: 50.0 mg/kg/injection, schedule: Q04DX003 (ip), vehicle: Klucel (hydroxypropylcellulose) (HPC) 93 % of control

CCSCCOC(=S)Nc1ccccc1
inactive: [6] 98 % of control | [8] 97 % of control | [9] 92 % of control

CCN(CC)c1ccnc(SCc2ccccc2)n1
inactive: dose: 100.0 mg/kg/injection, schedule: Q01DX Z (ip), vehicle: methylcellulose (MC) 89 % of control | dose: 200.0 mg/kg/injection, schedule: Q01DX Z (ip), vehicle: methylcellulose (MC) 89 % of control

O=C(Nc1ccccc1)/C(Cl)=C/O
inactive: [19] 91 % of control | [20] 94 % of control | [21] 97 % of control

Cc1c(C#N)oc2cccc(O)c12
inactive: [22] 100 % of control | [19] 109 % of control | [23] 100 % of control | [20] 109 % of control | [24] 96 % of control | [21] 102 % of control

COC(=O)C(C)NC(=O)CNC(=O)CNC(=O)OCc1ccccc1 (centres undefined)
inactive: [6] 97 % of control | [8] 100 % of control | [9] 95 % of control

O=C(O)C1CCC[N-]C1.O=C(O)C1CCC[N-]C1.O=C(O)C1CCC[N-]C1.O=C(O)C1CCC[N-]C1.[Cl][Rh][Cl] (centres undefined)
inactive: dose: 100.0 mg/kg/injection, schedule: Q01DX009 (ip), vehicle: saline 104 % of control | [16] 96 % of control | dose: 200.0 mg/kg/injection, schedule: Q01DX009 (ip), vehicle: saline 104 % of control | [17] 102 % of control | dose: 400.0 mg/kg/injection, schedule: Q01DX009 (ip), vehicle: saline 90 % of control | [18] 96 % of control

CN(C)c1nc2c(=O)[nH]cnc2n1C1OC(CO)C(O)C1O (centres undefined)
inactive: dose: 50.0 mg/kg/injection, schedule: Q01DX001 (ip), vehicle: saline 95 % of control | [2] 93 % of control | [3] 112 % of control | [4] 95 % of control

CN(C(=O)NCCCl)C1CCCCC1
inactive: [25] 106 % of control

c1ccc(SCC2C3CSC4C3CC2C4Sc2ccccc2)cc1 (centres undefined)
inactive: dose: 100.0 mg/kg/injection, schedule: Q01DX001 (ip), vehicle: saline with Tween-80 98 % of control | dose: 200.0 mg/kg/injection, schedule: Q01DX001 (ip), vehicle: saline with Tween-80 105 % of control | dose: 400.0 mg/kg/injection, schedule: Q01DX001 (ip), vehicle: saline with Tween-80 94 % of control

CC(=O)NCCc1ccc(S(=O)(=O)F)cc1
inactive: [5] 91 % of control | [7] 102 % of control

CN(C)CCCNCC(=O)N1CCN(C(=O)CNCCCN(C)C)CC1
inactive: [1] 106 % of control | [15] 106 % of control

O=C(N/N=C\c1c(O)ccc2ccccc12)c1ccncc1
inactive: [6] 106 % of control | [8] 101 % of control | [9] 108 % of control

O=C1CCCC(=S)N1
inactive: [1] 113 % of control | [15] 106 % of control

CC(C(=O)N1c2ccccc2Sc2ccccc21)[N+](C)(C)C (centres undefined)
inactive: dose: 12.5 mg/kg/injection, schedule: Q04DX003 (ip), vehicle: saline 112 % of control | dose: 25.0 mg/kg/injection, schedule: Q01DX009 (ip), vehicle: saline 100 % of control | dose: 25.0 mg/kg/injection, schedule: Q04DX003 (ip), vehicle: saline 98 % of control | dose: 50.0 mg/kg/injection, schedule: Q01DX009 (ip), vehicle: saline 102 % of control | dose: 50.0 mg/kg/injection, schedule: Q04DX003 (ip), vehicle: saline 104 % of control | [16] 104 % of control

Cc1ccc(NC2=CC(=O)c3ccccc3C2=O)cc1
inactive: [25] 93 % of control | dose: 150.0 mg/kg/injection, schedule: Q01DX001 (ip), vehicle: carboxymethylcellulose (CMC) 95 % of control

CC(=O)OCC1C2CCC(C2)C1C (centres undefined)
inactive: [13] 95 % of control | [14] 101 % of control | dose: 300.0 mg/kg/injection, schedule: Q01DX001 (ip), vehicle: acetone 114 % of control

Cc1c(Cl)cccc1NC(=O)c1cccc(C(=O)Nc2cccc(Cl)c2C)c1
inactive: [22] 112 % of control | [6] 91 % of control | [23] 93 % of control | [8] 90 % of control | [24] 88 % of control | [9] 98 % of control

CCN(CC)CCN1C(=O)c2ccccc2S1(=O)=O
inactive: dose: 44.0 mg/kg/injection, schedule: Q01DX Z (ip), vehicle: saline 100 % of control | dose: 66.0 mg/kg/injection, schedule: Q01DX Z (ip), vehicle: saline 98 % of control | dose: 100.0 mg/kg/injection, schedule: Q01DX Z (ip), vehicle: saline 98 % of control
